Source: US20260174682A1, “GAMMA-AMINOBUTYRIC ACID DERIVATIVE COMPRISING POLYCYCLIC STRUCTURE, METHOD FOR PREPARING SAME, AND USE THEREOF” (ZHONGSHAN INSTITUTE FOR DRUG DISCOVERY, SIMM, CAS., priority 2022, published 2026)
Marks after values point to notes of the source that are not given here.

How the values were obtained:
Assay type in all cases: in vivo
[1] = system: mouse maximum electroshock model (MES); test: Antiepileptic effect in mouse maximum electroshock model (MES); conditions: gavage; for Number of animals with tonic straightening of hind limbs/total number of detected animals / Protection rate (%): MES, ICR mice
Procedure: A negative vehicle control group, a positive drug control group (pregabalin and gabapentin) and a test group of the compounds of the present application were set. Male ICR mice with a body weight of […] were selected. […] After fasted for 12 h, the mice were administered the compounds of the present application or the control drugs according to the body weight, and then subjected to electrical stimulation to induce generalized tonic-clonic seizure behaviors after a certain lime interval (2 h for pregabalin, 1 h for gabapentin, and 3 h for the compounds of the present application). A YLS-9A electrophysiological stimulator (Shanghai Xinruan Information Technology Co., Ltd.) was used in an induction model, and parameters were set as follows: configuration 8, stimulation voltage 160 V, wave number 90. When the electrical stimulation was performed, ears on both sides of the mice were firstly wiped with normal saline and then given the electrical stimulation for 1 lime with ear clip electrodes. Tonic straightening of hind limbs was used as a standard for epilepsy seizures. The animals with the tonic straightening of hind limbs were regarded as not being protected by the drugs, and the animals without the tonic straightening of hind limbs were regarded as being protected by the drugs. Response situations of the animals were observed and recorded, and obtained data were counted to calculate protection rates of the compounds.
Median effective doses (ED50) of the compounds to be tested for animal protection were calculated by a least square method (Graphpad Prism 5) with an administration dose-protection rate curve.

[2] = system: mouse 6-Hz psychomotor seizure model; test: Antiepileptic effect in mouse 6-Hz psychomotor seizure model; conditions: 6-Hz model, C57BL/6 mice, gavage
Procedure: A negative vehicle control group, a positive drug control group (pregabalin and gabapentin) and a test group of the compounds of the present application were set. Male C57BL/6 mice with a body weight of 20±2 g were selected. […] After fasted for 12 h, the mice were administered the compounds of the present application or the control drugs, and then subjected to 6-Hz electrical stimulation to induce epilepsy seizure behaviors after a certain time interval (2 h for pregabalin, 1 h for gabapentin, 1 h for levetiracetam, and 3 h for the compounds of the present application). In an induction model, when the stimulation was performed with a Model 4100 stimulator (A-M Systems, the United States), rear necks of the mice were immobilized by hands on a feeding cage, a corneal electrode was moisten with normal saline and allowed to gently contact bilateral corneas of the mice, the electrical stimulator was trod by a foot to give the mice the electrical stimulation with a stimulation parameter of 6-Hz, a one-way square wave of 32 mA, a wave width of 0.2 ms and a stimulation duration of 3 sec, and timing was performed with a stopwatch during the stimulation. After the electrical stimulation was completed, the mice with the seizure behaviors lasting for less than 7 sec were regarded as being protected by the drugs, and the mice with the seizure behaviors lasting for more than 7 sec were regarded as being not protected from the epilepsy by the drugs. Response situations of the animals were observed and recorded, and obtained data were counted to calculate protection rates of the compounds.
Statistical method: The protection rates of different administration groups were separately compared with that of the vehicle control group to carry out a Fisher's exact test.

[3] = system: mouse model with subcutaneous injection of pentylenetetrazole (sc-PTZ); test: Antiepileptic effect in mouse model with subcutaneous injection of pentylenetetrazole (sc-PTZ); conditions: for Clonic seizure incidence / Convulsive seizure incidence / Generalized clonic seizure incidence / Mortality / Tonic seizure incidence: sc-PTZ 100 mg/kg, ICR mice, intraperitoneal 30 mg/kg (own compounds calculated by free base), 1 h observation; for latent periods of generalized clonic seizures, tonic seizures and death: 30 mg/kg (calculated by free base), FIG. 6
Procedure: A negative vehicle control group, a positive drug control group (pregabalin and gabapentin) and a test group of the compounds of the present application were set. Male ICR mice with a body weight of 22±2 g were selected. […] After fasted for 12 h, the mice were administered the compounds of the present application or the control drugs, and then subcutaneously injected with pentylenetetrazole (PTZ) to induce epilepsy seizure behaviors after a certain time interval (2 h for pregabalin, 1 h for gabapentin, and 3 h for the compounds of the present application). In an induction model, pentylenetetrazole (PTZ) was dissolved in normal saline and administered to the mice through the way of subcutaneous injection (10 mL/kg, administration dose 100 mg/kg). After the injection of PTZ, behavioral observations on the mice were conducted for 1 h, and the latent periods and numbers of the mice with convulsive seizures, clonic seizures, tonic seizures and death after the injection of PTZ were recorded.
Statistical method: Protection rates and mortality of different administration groups were separately compared with those of the vehicle control group to carry out a Fisher's exact test. The seizure time and the latent periods were analyzed by one-way ANOVA.

[4] = dose 3 mg/kg (own compounds calculated by free base)
[5] = dose 6 mg/kg (own compounds calculated by free base)
[6] = dose 10 mg/kg (own compounds calculated by free base)
[7] = dose 18 mg/kg (own compounds calculated by free base)
[8] = dose 30 mg/kg (own compounds calculated by free base)
[9] = dose 60 mg/kg (own compounds calculated by free base)
[10] = dose 60 mg/kg (calculated by free base)

| Structure (SMILES) | Number of animals with tonic straightening of hind limbs/total number of detected animals [1, 4] | Protection rate (%) [1, 4] | Number of animals with tonic straightening of hind limbs/total number of detected animals [1, 5] | Protection rate (%) [1, 5] | Number of animals with tonic straightening of hind limbs/total number of detected animals [1, 6] | Protection rate (%) [1, 6] | Number of animals with tonic straightening of hind limbs/total number of detected animals [1, 7] | Protection rate (%) [1, 7] | Number of animals with tonic straightening of hind limbs/total number of detected animals [1, 8] | Protection rate (%) [1, 8] | Number of animals with tonic straightening of hind limbs/total number of detected animals [1, 9] | Protection rate (%) [1, 9] | Clonic seizure incidence [3] | Convulsive seizure incidence [3] | Generalized clonic seizure incidence [3] | Mortality [3] | Tonic seizure incidence [3] | generalized clonic seizures (percent of animals; vehicle 100%) ([3]; sc-PTZ mice, 30 mg/kg) | tonic seizure incidence (percent of animals; vehicle 75%) ([3]; sc-PTZ mice, 30 mg/kg) | latent periods of generalized clonic seizures, tonic seizures and death ([3]; sc-PTZ mice) | further results |
| --- | --- | --- | --- | --- | --- | --- | --- | --- | --- | --- | --- | --- | --- | --- | --- | --- | --- | --- | --- | --- | --- |
| Cc1ccc(S(=O)(=O)O)cc1.NCC1(CC(=O)O)CC2C3C=CC(C3)C21 (single isomer, unassigned; (+)) [(+)-I-4 p-toluenesulfonate] | 7/8 | 12.5% | 6/8 | 25% | 7/8 | 12.5% | 7/12 | 41.7% | 3/8 | 62.5% | 1/6 | 83.3% | 10/10 | 10/10 | 6/10 | 3/10 | 2/10 | 60% | 20% | significantly prolong | Median effective dose (ED50) for animal protection ([1]; MES mice, least square fit of administration dose-protection rate curve): 21.51 mg/kg; Number of animals with clonic seizures/total number [2, 10]: 2/4; Protection rate (%) [2, 10]: 50.0 * % |
| CC(C)C[C@H](CN)CC(=O)O [Pregabalin] | 9/12 | 25% | 10/12 | 16.67% | 6/12 | 50% | 5/12 | 58.33% | 4/20 | 80% | 1/12 | 91.66% | 8/8 | 8/8 | 5/8 | 1/8* | 1/8** | 62.5% | 12.5% | significantly prolong | ED50 ([1]; Mus musculus, po, MES mice, least square fit of administration dose-protection rate curve, read-out: Median effective dose (ED50) for animal protection): 12 mg/kg; Number of animals with clonic seizures/total number ([2]; dose 30 mg/kg): 1/6**; Protection rate (%) ([2]; dose 30 mg/kg): 83.3 *** %; mortality (percent of animals; vehicle 75%) ([3]; sc-PTZ mice, 30 mg/kg): 12.5% |
